Experimental data taken from US12642860B2, “Filamentous nanostructures and their use for treatment of pulmonary disease” (THE JOHNS HOPKINS UNIVERSITY, priority 2019, dated 2026).
Non-standard residues stand in square brackets, D forms with d. Residues, ends and D or L forms follow the SMILES beside them. ξ: configuration not given here. *: point of attachment. X2 = CCCC1O[C@@H]2C[C@H]3[C@@H]4CCC5=CC(=O)C=C[C@]5(C)[C@H]4[C@@H](O)CC3(C)C2(C(=O)COC(=O)OCCS*)O1; Lauroyl = CCCCCCCCCCCC(=O)*; X1 = COCCOCCOCCOCCOCCC(=O)*; ξE = NC(CCC(=O)O)C(=O)O; ξQ = NC(=O)CCC(N)C(=O)O; ξD = NC(CC(=O)O)C(=O)O; ξL = CC(C)CC(N)C(=O)O; ξK = NCCCCC(N)C(=O)O; ξV = CC(C)C(N)C(=O)O; ξP = O=C(O)C1CCCN1

How the values were obtained:
Format in all cases: physicochemical
[1] = TEM morphology of filaments after jet nebulization; conditions: 500 μM, jet nebulization 10 min, mist and reservoir
Text: (§1) Since the supramolecular filament compositions are several microns long and are formed through non-covalent interactions, their structural integrity may be influenced by a number of factors during nebulization, such as agitation and aerosol formation. Thus, we first assessed the structural stability of these systems while traveling in aerosol droplets generated by a jet nebulizer. Nebulizers are commonly employed medical devices for producing liquid aerosol droplets containing therapeutics via high velocity airflow through the device nozzle. Droplets very large in diameter impact baffles and/or the walls of the nebulizer and are recycled back into the device's reservoir, but droplets small enough to circumvent these barriers (typically ranging in diameter from 1 to 10 μm) exit the device as a respirable aerosol. Therefore, we characterized two groups of structures after nebulization: the exiting mist and the leftover solution in the reservoir. Filament compositions in solutions diluted down to 500 µM of the different PAs were loaded into a jet nebulizer and nebulized for 10 minutes, and the mist and leftover reservoir solutions were collected and subsequently analyzed with TEM. […] For both the nebulized and reservoir populations, we see the introduction of short bundled fibrils, worm-like micelles, and spherical micelles (spherical micelles depicted in FIG. 7).
After encapsulation, we used TEM imaging to confirm self-assembly of the system into filamentous nanostructures. […] Spherical micelles are still observed, but the fibril and worm-like structures are not. […] In terms of delivering therapeutics in an aerosol, this presents an effective strategy for improving structural stability of supramolecular peptide-based assemblies during nebulization.

[2] = Dynamic light scattering molar scattering rate during nebulization; conditions: measured every 2 min for 10 min nebulization
Protocol: We next investigated whether this filament breakdown was consistent over the course of a nebulization event. We measured the molar scattering rate of the filaments with dynamic light scattering (DLS) every 2 min for a total 10 min as a measure of assembly size, as larger filamentous assemblies will scatter light more strongly than smaller ones. The molar scattering rate represents the scattering rate normalized to the sample concentration and is used here, since the DLS software uses models for fitting spherical particles and our structures are anisotropic. […] In terms of delivering supramolecular filament systems with a jet nebulizer for treatment administration, the consistent filament breakdown over the course of a nebulization event is promising in regard to aerosol delivery, as the filaments are released reliably with a relatively uniform size drop over time from the device.

[3] = Circular dichroism of filaments before and after nebulization; conditions: for CD signal immediately after nebulization, mist / CD signal immediately after nebulization, reservoir: 500 μM, 10 min nebulization; for CD signal immediately after nebulization, mist: filaments collected in the mist; for CD signal immediately after nebulization, reservoir: filaments leftover in the reservoir; for CD signal 2 weeks after nebulization: same solutions aged additional 2 weeks at room temperature
Protocol: FIGS. 13A-13C show circular dichroism (CD) spectra of the supramolecular filament systems before and immediately after nebulization (solid lines) alongside the same solutions 2 weeks later (dashed lines). All filaments were nebulized at 500 µM for 10 min. Data given are mean spectra for each solution (n=3). (13A) EPA filaments before and after nebulization, showing preservation of β-sheet character during nebulization. (13B) OPA filaments before and after nebulization, showing retention of β-sheet character with a temporary increase in CD signal. (13C) KPA filaments before and after nebulization, showing a transition from β-sheet to random coil for the nebulization group and weakened β-sheet hydrogen bonding for the reservoir group.
While we were able to directly observe filament breakdown in terms of length, we investigated further the impact nebulization may have on the molecular packing of the PA monomers within the supramolecular filaments. FIG. 13 contains the representative circular dichroism (CD) spectra of the three filament systems before and after a 10 min nebulization event of both filaments that exit as mist and those leftover in the reservoir. EPA, OPA, and KPA filaments before nebulization show primarily β-sheet characteristic hydrogen bonding, as evidenced by a negative peak around 220 nm and a positive peak around 197 nm for each system. […] This slightly contrasts from the behavior observed for the EPA filaments and is likely attributed to the potential alignment of OEG chains of OPA from aerosol formation forces, which reduces steric repulsion between OPA monomers. […] This is corroborated by the morphologies observed for the KPA filaments after nebulization, as smaller worm-like micelles and spherical micelles were generated. The strength of the hydrogen-bonding network within the supramolecular filaments is evidently important in the maintenance and stabilization of β-sheet character after nebulization.
To gain insight into the thermodynamic stability of the new assembly states induced by nebulization, we analyzed the CD signal of the same filament solutions after nebulization after aging for an additional 2 weeks in solution at room temperature. […] Additionally, the shorter EPA and OPA filaments are still observed in the nebulized and reservoir groups with TEM imaging after 2 weeks (FIGS. 14 and 15). […] Since a transition back to β-sheet character is not observed for the nebulized group, it is likely that nebulization induces the formation of new metastable assemblies of the KPA monomers, which is corroborated by TEM images of the KPA filaments 2 weeks after nebulization, as the fibril, worm-like micelle, and spherical micelle structures are still observed (FIG. 16).

[4] = Contour length analysis of filaments in TEM images after jet nebulization; conditions: jet nebulization 10 min, mean±SD; for average contour length, exiting the nebulizer as a mist: nebulized mist population; for average contour length, leftover in the reservoir: reservoir population
Text: FIGS. 12A-12F are contour length reduction analyses of (12A) EPA, (12B) OPA, and (12C) KPA filaments after nebulization, comparing the nebulized (red) and reservoir (blue) populations' size distributions (20 bins, 50 nm each). Nebulized populations measured shorter on average compared to the reservoir populations. Average contour lengths (μ) given as mean±SD alongside medians (M) for each population (****p<0.0001, two-tail unpaired t test; EPA: nN=316, nR=316; OPA: nN=311, nR=339; KPA: nN=377, nR=369). Dynamic light scattering measurements of (12D) EPA, (12E) OPA, and (12F) KPA over the course of a 10 min nebulization event as collected every 2 min, showing consistent filament breakdown over time. Data are normalized to molar scattering rate of filaments at t=0 min and given as mean±SD (p>0.05, two-way ANOVA, n=3).
as §1
Filaments before nebulization were not measured, as accurate contour lengths could not be determined, since the filaments are over several microns long. For all three systems, the nebulized population was measured to be on average shorter than its respective reservoir population. […] The EPA, OPA, and KPA filaments averaged around 287±147 nm, 174±103 nm, and 133±108 nm, respectively, exiting the nebulizer as a mist and around 360±177 nm, 206±88 nm, and 196±113 nm, respectively, leftover in the reservoir. For the KPA system, spherical micelles were omitted from this analysis as they bias the distribution representation toward non-filamentous structures.

[5] = Critical assembly concentration (CAC) by Nile Red assay; conditions: in water
Text: FIGS. 17A-17C depict the critical assembly concentration (CAC) of (17A) EPA, (17B) OPA, and (17C) KPA molecules in water as measured from a Nile Red assay. A fluorescence intensity maximum is shifted from a wavelength of 660 nm to 635 nm as Nile Red dye becomes encapsulated within the supramolecular structures of the peptide amphiphiles (PAs). Blue line represents region of concentrations where Nile Red remains in solution; red line represents region where Nile Red is encapsulated. Data are given as mean±SD (n=3).
Therefore, we assessed the thermodynamic stability of each supramolecular filament system by measuring their critical assembly concentration (CAC) using a Nile Red assay. As shown in FIGS. 17A-C, the CAC values of EPA, OPA, and KPA were measured to be 1 μM, 1.9 μM, and 40 μM, respectively. Data from the Nile Red assay are given in full in FIG. 18. The differences in CAC between the different PAs are likely reflective of differences in electrostatic repulsion between the charged groups of EPA and KPA and steric effects with respect to the size of the OEG groups of the OPA molecule.^74 We find a direct correlation between the CAC value and nebulization stability of the supramolecular filaments with respect to nanostructure integrity and hydrogen bonding interactions. […] As the CAC value represents the propensity of the monomer units to aggregate in solution, increasing the strength of hydrophobic interactions alongside other non-covalent interactions through molecular engineering can result in lower CAC systems, and thus create supramolecular filament systems with enhanced stability during aerosol formation.

[6] = Loading capacity of drugs/dye within KPA filaments; conditions: encapsulated in KPA filaments, % by mass
Text: FIGS. 20A-20C show (20A) the molecular structure of the lung disease-relevant drugs and fluorescent dye used in loading within the supramolecular filaments: paclitaxel (PTX, MW=853.92 g/mol), the anticancer drug; coumarin 6 (Cou6, MW=350.44 g/mol), the green fluorescent dye; and budesonide (BUD, MW=430.54 g/mol), the anti-inflammatory glucocorticoid used to treat symptoms of asthma and chronic obstructive pulmonary disease (top). (20B) The encapsulation process of hydrophobic drugs and dyes within supramolecular peptide amphiphile (PA)-based filaments, where dissolution of PA monomers and drug/dye in aqueous solutions results in their self-assembly with the drug/dye loaded within the hydrophobic core (left). The loading capacity of PTX, Cou6, and BUD based on mass (left axis, solid bars) and mole (right axis, checkered bars) percent within KPA supramolecular filaments (right). Data are given as mean±SD (n=5). (20C) Representative transmission electron microscopy (TEM) images of KPA filaments loaded with PTX (i, ii), Cou6 (iii, iv), and BUD (v, vi) before and after nebulization at 500 μM. Diameters are given as mean±SD (n=35).
With better insight into nebulization stability and the mechanism of supramolecular filament breakdown, we next sought to assess whether these systems can successfully carry drugs and dyes within aerosol droplets for potential inhalation-based therapies. […]

SMILES | CD signal immediately after nebulization, mist [3] | CD signal immediately after nebulization, reservoir [3] | CD signal 2 weeks after nebulization [3] | average contour length, exiting the nebulizer as a mist [4] | average contour length, leftover in the reservoir [4] | critical assembly concentration (CAC) [5] [µM] | loading capacity by mass within KPA filaments [6] [%] | structure/morphology after nebulization (TEM) [1] | filament breakdown over time (molar scattering rate, DLS) [2]
CCCC1O[C@@H]2C[C@H]3[C@@H]4CCC5=CC(=O)C=C[C@]5(C)[C@H]4[C@@H](O)CC3(C)C2(C(=O)COC(=O)OCCSSC[C@H](NC(C)=O)C(=O)NC(C(=O)N[C@H](C(=O)NC(C(=O)NCC(=O)NCC(=O)NC(CCCCN)C(=O)NC(C(=O)NC(CC(C)C)C(=O)NC(CC(=O)O)C(=O)NCC(=O)NC(CCC(N)=O)C(=O)NC(CC(=O)O)C(=O)N2CCCC2C(N)=O)C(C)C)C(C)C)C(C)C)C(C)C)O1 (some centres unmarked) [CAB-0] (Ac-C(X2)[ξV]V[ξV]GG[ξK][ξV][ξL][ξD]G[ξQ][ξD][ξP]-NH2) | – | – | – | – | – | – | – | retention of filaments after a nebulization event with shortened length | –
CCCCCCCCCCCC(=O)N[C@@H](Cc1ccc(O)cc1)C(=O)NC(C(=O)N[C@H](C(=O)NC(C(=O)NCC(=O)NCC(=O)N[C@@H](CCCCN)C(=O)NC(CCCCN)C(=O)N[C@@H](CCCCN)C(N)=O)C(C)C)C(C)C)C(C)C (some centres unmarked) [KPA] (Lauroyl-Y[ξV]V[ξV]GGK[ξK]K-NH2) | secondary structure transition from β-sheet to random coil character | weakened β-sheet signal | continued to display the weakened β-sheet signal in the reservoir group and the random coil character of the nebulized group | ~133±108 nm | ~196±113 nm | 40 | – | formation of different morphologies in both populations | consistent breakdown over the course of 10 min
CC(=O)O[C@H]1C(=O)[C@@]2(C)[C@H]([C@H](OC(=O)c3ccccc3)[C@]3(O)C[C@H](OC(=O)[C@H](O)[C@@H](NC(=O)c4ccccc4)c4ccccc4)C(C)=C1C3(C)C)[C@]1(OC(C)=O)CO[C@@H]1C[C@@H]2O [PTX, paclitaxel] | – | – | – | – | – | – | 1.5 | – | –

Now from value to compound, other results behind:

CD signal immediately after nebulization, mist [3] | CD signal immediately after nebulization, reservoir [3] | CD signal 2 weeks after nebulization [3] | average contour length, exiting the nebulizer as a mist [4] | average contour length, leftover in the reservoir [4] | critical assembly concentration (CAC) [5] [µM] | loading capacity by mass within KPA filaments [6] [%] | SMILES | structure/morphology after nebulization (TEM) [1] | filament breakdown over time (molar scattering rate, DLS) [2]
slightly increased β-sheet signal | no change to their hydrogen bonding | maintained their β-sheet character | around 287±147 nm | around 360±177 nm | 1 | – | CCCCCCCCCCCC(=O)N[C@@H](Cc1ccc(O)cc1)C(=O)NC(C(=O)N[C@H](C(=O)NC(C(=O)NCC(=O)NCC(=O)N[C@@H](CCC(=O)O)C(=O)NC(CCC(=O)O)C(=O)N[C@@H](CCC(=O)O)C(N)=O)C(C)C)C(C)C)C(C)C (some centres unmarked) [EPA] (Lauroyl-Y[ξV]V[ξV]GGE[ξE]E-NH2) | maintained their filamentous structure but a notable reduction in length was observed | consistent breakdown over the course of 10 min
increased β-sheet signals | increased β-sheet signals | maintained their β-sheet character | ~174±103 nm | ~206±88 nm | 1.9 | – | CCCCCCCCCCCC(=O)N[C@@H](Cc1ccc(O)cc1)C(=O)NC(C(=O)N[C@H](C(=O)NC(C(=O)NCC(=O)NCC(=O)N[C@@H](CCCCNC(=O)CCOCCOCCOCCOCCOC)C(=O)NC(CCCCNC(=O)CCOCCOCCOCCOCCOC)C(N)=O)C(C)C)C(C)C)C(C)C (some centres unmarked) [OPA] (Lauroyl-Y[ξV]V[ξV]GGK(X1)[ξK](X1)-NH2) | shorter filaments are produced | consistent breakdown over the course of 10 min
